A short description of one data set: in vitro. The note with it: African green monkey.
A further data set concerns VEEV TC83. Kind of data set: microbe, parasite or virus in culture. It counts as cell-based. The note with it: Venezuelan equine encephalitis virus, Vero, 16 h, read-out: Titre reduction (%).
The test system of data set [1] is VEEV TC-83 virus expressing a luciferase reporter gene (TC-83-luc). Kind of data set: microbe, parasite or virus in culture. Format: cell-based, Venezuelan equine encephalitis virus.
Data set [2] has as its system nuclear import of VEEV CP-GFP fusion protein. Kind of data set: cells. It counts as cell-based. Conditions: for inhibition at 200 µM: Venezuelan equine encephalitis virus, HeLa, 2 h, read-out: inhibition of nuclear import of CP-GFP (FRAP, Fn(rec)max); for inhibition of nuclear import of CP-GFP (FRAP, Fn(rec)max): 200 µM.
Data set [3] concerns Vero cells. Conditions: cited from earlier work.
Data set [4] has as its system VEEV CP nuclear accumulation. Format: cell-based, Venezuelan equine encephalitis virus.
Data set [5] concerns VEEV TC-83 virus expressing a luciferase reporter gene (TC-83-luc). Conditions: read-out: anti-VEEV activity EC50; cited from earlier work.
Data set [6] deals with Vero cells.
Setting [7] is: Venezuelan equine encephalitis virus, Vero, read-out: EC50, concentration yielding 50% inhibition of viral replication.
[8] abbreviates: Venezuelan equine encephalitis virus, Vero, read-out: EC50, µM (cells printed ND).
Where [9] appears, read: read-out: EC50, concentration yielding 50% inhibition of viral replication.

Here are results for 22 compounds from article PMC6385310 (Scientific Reports, 2019).

Where “and” joins values, the source holds several entries; their conditions need not be identical. Equal entries are not always repeated. Where two headings read alike, the source gives them in different places.

Regarding `C[C@]12C[C@H](c3ccccc3)C3=C4CCC5(C[C@]4(O)CC[C@H]3[C@@H]1CC[C@@]2(O)C#C[Si](C)(C)C)OCCO5` [Compound 45], the CC50 in “in vitro” was more than 100 µM. Moreover, the inhibition at 10 µM with VEEV TC83 turned out to be 95.4 ± 4.1%. For the same compound, the “SI, selectivity index (CC50/EC50)” value in data set [1] is reported as more than 38.7. For the same compound, the EC50 in data set [1] (setting [7]) came to 2.6 ± 0.4 µM.

Turning to `CN(C)c1ccc([C@H]2C[C@@]3(C)[C@@H](CC[C@@]3(O)C#CCO)[C@@H]3CCC4=CC(=O)CCC4=C32)cc1` [Compound 11], the CC50 in “in vitro” was more than 100 µM. For the same compound, in data set [1], the “detectable antiviral (anti-VEEV) activity, in words” value (“detectable antiviral” below) was “abolished any detectable antiviral activity”. Further, the EC50 in data set [1] (setting [8]) is more than 100 µM.

With `CN(C)c1ccc([C@H]2C[C@@]3(C)[C@@H](CC[C@@]3(O)/C=C\CO)[C@@H]3CCC4=CC(=O)CCC4=C32)cc1` [Compound 13, Lilopristone, reference compound], the CC50 in the data set “in vitro” is more than 100 µM. The “detectable antiviral” value in data set [1] is on record as “abolished any detectable antiviral activity”. In addition, the EC50 in data set [1] (setting [8]) was more than 100 µM.

`CC[Si](C#C[C@]1(O)CC[C@H]2[C@@H]3CC[C@@]4(O)CC5(CCC4=C3[C@@H](c3ccc(N(C)C)cc3)C[C@@]21C)OCCO5)(CC)CC` [Compound 31] registered a CC50 in the data set “in vitro” of more than 100 µM. Also, the inhibition at 10 µM in the data set on VEEV TC83 was 93.9 ± 3.2%. For the same compound, in data set [1], the “SI, selectivity index (CC50/EC50)” value is 4.7 ± 0.5 >100 >21.5. The EC50 in data set [1] (setting [7]) worked out at 4.7 µM.

In turn, `CN(C)c1cccc([C@H]2C[C@@]3(C)[C@@H](CC[C@@]3(O)C#C[Si](C)(C)C)[C@@H]3CCC4=CC(=O)CCC4=C32)c1` [Compound 54] gave a CC50 in “in vitro” of more than 100 µM. The inhibition at 10 µM in the data set on VEEV TC83 came to 94.1 ± 7.1%. Also, in data set [1], the “SI, selectivity index (CC50/EC50)” value is recorded as more than 16.7. For the same compound, the EC50 in data set [1] (setting [7]) was found to be 6 ± 1.1 µM.

Turning to `CC(C)[Si](C#C[C@]1(O)CC[C@H]2[C@@H]3CC[C@@]4(O)CC5(CCC4=C3[C@@H](c3ccc(N(C)C)cc3)C[C@@]21C)OCCO5)(C(C)C)C(C)C` [Compound 32], in the data set “in vitro”, the CC50 was more than 100 µM. In the data set with VEEV TC83, the inhibition at 10 µM is 89.7 ± 4.6%. Further, the “SI, selectivity index (CC50/EC50)” value in data set [1] is 22.0 ± 6.1 >100 >4.5. In addition, in data set [1] (setting [7]), the EC50 worked out at 22 µM.

Compound `CN(C)c1ccc([C@H]2C[C@@]3(C)[C@@H](CC[C@@]3(O)C#CC(F)(F)F)[C@@H]3CC[C@@]4(O)CC5(CCC4=C32)OCCO5)cc1` [Compound 8] came in with a CC50 in “in vitro” of more than 100 µM. Further, the “SI, selectivity index (CC50/EC50)” value in data set [1] is 27.6 ± 5.1 >100 >3.6. Also, in data set [1] (setting [7]), the EC50 was 27.6 µM.

For the compound `CC#C[C@]1(O)CC[C@H]2[C@@H]3CCC4=CC(=O)CCC4=C3[C@@H](c3ccc(NC)cc3)C[C@@]21C` [Compound 6, Desmethyl-mifepristone, reference compound], the “detectable antiviral” value in data set [1] is given as “eliminated any detectable antiviral activity”.

The compound `CN(C)c1ccc([C@H]2C[C@@]3(C)[C@@H](CC[C@@]3(O)C#Cc3ccccc3)[C@@H]3CC[C@@]4(O)CC5(CCC4=C32)OCCO5)cc1` [Compound 36] came in with a CC50 in the data set “in vitro” of more than 100 µM. In addition, the inhibition at 10 µM with VEEV TC83 came out at 53.9 ± 18.8%. The “SI, selectivity index (CC50/EC50)” value in data set [1] is recorded as 7.2 ± 2.3 >100 >14.0. Besides, the EC50 in data set [1] (setting [7]) came to 7.2 µM.

On to `CC(C)[Si](C#C[C@]1(O)CC[C@H]2[C@@H]3CCC4=CC(=O)CCC4=C3[C@@H](c3ccc(N(C)C)cc3)C[C@@]21C)(C(C)C)C(C)C` [Compound 35], for which the CC50 in “in vitro” was more than 100 µM. The results for the EC50 in data set [1] (setting [7]) and in data set [1] (setting [9]) were 16.3 ± 4.7 µM and 16.3 µM, respectively.

`CN(C)c1ccc([C@H]2C[C@@]3(C)[C@@H](CC[C@@]3(O)C#C[Si](C)(C)C)[C@@H]3CCC4=CC(=O)CCC4=C32)cc1` [Compound 33] returned a CC50 in the data set “in vitro” of more than 100 µM. In data set [2], the inhibition at 200 µM is approximately 30%. The EC50 in data set [1] (setting [7]) is less than 10 µM; in data set [1] (setting [9]) it was 8.49 µM and 8.5 µM.

`CC(=O)O[C@]1(C(C)=O)CC[C@H]2[C@@H]3CCC4=CC(=O)CCC4=C3[C@@H](c3ccc(N(C)C)cc3)C[C@@]21C` [Compound 21, Ulipristal Acetate, reference compound] gave a CC50 in “in vitro” of more than 100 µM. In addition, the “SI, selectivity index (CC50/EC50)” value in data set [1] was more than 8.67. In addition, the figures for the EC50 in data set [1] (setting [7]) and in data set [1] (setting [9]) were 11.5 µM and 11.5 ± 7 µM, respectively.

Compound `C[C@]12C[C@H](c3ccc(-c4ccccc4)cc3)C3=C4CCC(=O)C=C4CC[C@H]3[C@@H]1CC[C@@]2(O)C#C[Si](C)(C)C` [Compound 53] returned a CC50 in the data set “in vitro” of more than 100 µM. In the data set on VEEV TC83, the inhibition at 10 µM came out at 91.1 ± 5.4%. Further, the “SI, selectivity index (CC50/EC50)” value in data set [1] was more than 20.1. Besides, the EC50 in data set [1] (setting [7]) stood at 5 ± 0.7 µM.

Take `CC[Si](C#C[C@]1(O)CC[C@H]2[C@@H]3CCC4=CC(=O)CCC4=C3[C@@H](c3ccc(N(C)C)cc3)C[C@@]21C)(CC)CC` [Compound 34]: the CC50 in “in vitro” is more than 100 µM. Also, the inhibition at 200 µM in data set [2] was approximately 30%. Also, in the data set on VEEV TC83, the inhibition at 10 µM is 95.8 ± 1.9%.

In the case of `CC#C[C@]1(O)CC[C@H]2[C@@H]3CCC4=CC(=O)CCC4=C3[C@@H](c3ccc(N(C)C)cc3)C[C@@]21C` [Compound 1, mifepristone, reference compound], the values for the CC50 in “in vitro” and in the data set with Vero cells [3] were 165 µM and more than 100 µM, respectively. For the same compound, the inhibition at 200 µM in data set [2] was approximately 30%. In the data set with VEEV TC83, the inhibition at 10 µM worked out at 93.7 ± 19.6%. In data set [4], the “nuclear accumulation of CP in infected cells (Fn/c)” value is given as “reduced the nuclear accumulation of CP”. The EC50 in data set [5] was 20 µM; in data set [1] (setting [7]) it was 19.9 ± 2.7 µM; in data set [1] (setting [9]), 19.9 ± 2.7 µM.

As to `C/C=C\[C@]1(O)CC[C@H]2[C@@H]3CCC4=CC(=O)CCC4=C3[C@@H](c3ccc(N(C)C)cc3)C[C@@]21C` [Compound 7, Aglepristone, reference compound], in the data set with Vero cells [6], the CC50 is more than 100 µM. Besides, the EC50 in data set [1] (setting [9]) stood at 25.3 µM.

In the data set “in vitro”, `CN(C)c1ccc([C@H]2C[C@@]3(C)[C@@H](CC[C@@]3(O)C#CC(F)(F)F)[C@@H]3CCC4=CC(=O)CCC4=C32)cc1` [Compound 9, Trifluoromethylmifepristone] had a CC50 of more than 100 µM. The “detectable antiviral” value in data set [1] is recorded as “did not significantly alter the activity of the analogue from 1”. For the same compound, in data set [1] (setting [7]), the EC50 turned out to be 17.8 ± 1.7 µM.

In the case of `CN(C)c1ccc([C@H]2C[C@@]3(C)[C@@H](CC[C@@]3(O)C#C[Si](C)(C)C)[C@@H]3CC[C@@]4(O)CC5(CCC4=C32)OCCO5)cc1` [Compound 30], the CC50 in the data set “in vitro” is more than 100 µM. Besides, the inhibition at 10 µM in the data set with VEEV TC83 is 88.4 ± 4.8%. The “SI, selectivity index (CC50/EC50)” value in data set [1] was more than 9.0. Further, in data set [1] (setting [7]), the EC50 stood at 11.1 ± 1.9 µM.

In turn, `COc1ccc(C#C[C@]2(O)CC[C@H]3[C@@H]4CCC5=CC(=O)CCC5=C4[C@@H](c4ccc(N(C)C)cc4)C[C@@]32C)cc1` [Compound 39] returned a CC50 in “in vitro” of more than 100 µM. The “inhibition of nuclear import of CP-GFP (FRAP, Fn(rec)max)” value in data set [2] is “did not significantly alter CP nuclear import dynamics”. The inhibition at 10 µM with VEEV TC83 is 47.4 ± 21.4%. Also, the EC50 in data set [1] (setting [7]) was less than 10 µM; in data set [1] (setting [9]) it was 5.23 µM and 5.2 µM.

For the compound `CN(C)c1ccc([C@H]2C[C@@]3(C)[C@@H](CC[C@@]3(O)C#Cc3ccccc3)[C@@H]3CCC4=CC(=O)CCC4=C32)cc1` [Compound 38], the CC50 in the data set “in vitro” is more than 100 µM. Besides, the inhibition at 10 µM with VEEV TC83 is 69.7 ± 15.4%. In addition, the “SI, selectivity index (CC50/EC50)” value in data set [1] is >11.82 and 8.5 ± 1.7 >100 >11.8. Further, the EC50 in data set [1] (setting [7]) was determined as 8.46 ± 1.7 µM; in data set [1] (setting [9]), 8.5 µM.

In “in vitro”, `COc1ccc(C2C[C@@]3(C)[C@@H](CC[C@@]3(O)C#C[Si](C)(C)C)[C@@H]3CCC4=CC(=O)CCC4=C23)cc1` (stereo partly drawn) [Compound 51] showed a CC50 of more than 100 µM. Besides, the “SI, selectivity index (CC50/EC50)” value in data set [1] is on record as more than 4.5. The EC50 in data set [1] (setting [7]) was 22.5 ± 2.4 µM.

Consider `COc1ccc(C#C[C@]2(O)CC[C@H]3[C@@H]4CC[C@@]5(O)CC6(CCC5=C4[C@@H](c4ccc(N(C)C)cc4)C[C@@]32C)OCCO6)cc1` [Compound 37], for which the CC50 in “in vitro” was more than 100 µM. The “inhibition of nuclear import of CP-GFP (FRAP, Fn(rec)max)” value in data set [2] is given as “did not significantly alter CP nuclear import dynamics”. The inhibition at 10 µM with VEEV TC83 was found to be 67.1 ± 12.2%.
